Several values for one entry are separate records, joined by “and”; a condition that tells them apart may be missing. Identical values can stand only once.
How the values were obtained:
PC-9 cells = experiment: CCK-8 antiproliferation assay, PC-9; details: Homo sapiens, PC-9, 48 h, read-out: IC50 (μM) PC-9
Method: The compounds were dissolved in DMSO to make a 20 μM stock solution and diluted to the concentration of working solutions with complete growth medium before administration.
Cells were seeded in 96-well plates: 3,000–5,000 cells/well in 100 ul. One day after seeding, the test compounds at concentration between 1.0 and 16.0 μ M or 0.1% DMSO (as control) were added to cells in triplicate. 48 h later, CCK-8 was added and incubated the plate for 1–4 h in the incubator. The absorbance at 450 nm were measured using a microplate reader (Bio-Tek).

H460 cells = experiment: CCK-8 antiproliferation assay, H460; details: for Inhibitory efficacy: H460 cells; for IC50: NCI-H460, 48 h, read-out: IC50 (μM) H460, CCK-8, 48 h, average ± SD of three independent experiments
H1975 cells = experiment: CCK-8 antiproliferation assay, H1975; details: for Inhibitory efficacy: H1975 cells; for IC50: NCI-H1975, 48 h, read-out: IC50 (μM) H1975, CCK-8, 48 h, average ± SD of three independent experiments
A549 cells = experiment: CCK-8 antiproliferation assay, A549; details: for Inhibitory efficacy: A549 cells; for IC50: A549, 48 h, read-out: IC50 (μM) A549, CCK-8, 48 h, average ± SD of three independent experiments
wild-type EGFR = wild-type EGFR (Homo sapiens, UniProt P00533); experiment: EGFR kinase assay (ELISA); details: for IC50: IC50 (μM) EGFR, ELISA, 3 μmol/L ATP; for A450: raw ELISA absorbance
Method: The kinase enzyme of EGFR was purchased from Carna Bioscience (Kobe, Japan). A total of 10 ng/ml anti phosphotyrosine (PY713) antibody (abcam, Cambridge Science Park, United Kingdom) was precoated in 96-well ELISA plates. […] Then, a total of 3 μmol/L ATP was added and the reaction was continued for 2 h. […] After incubation, the wells were washed with PBS and then incubated with horseradish peroxidase (HRP)-conjugated streptavidin. The wells were visualized using 3,3′,5,5′-tetramethylbenzidine (TMB), and chromogenic reaction was ended with 2 mol/L H2SO4, the absorbance was read with a multimode plate reader (PerkinElmer, United States) at 450 nm.

[1] = 1uM, given as fraction, Repeat 1-3
[2] = 2uM, given as fraction, Repeat 1-3
[3] = 8uM, given as fraction, Repeat 1-3
[4] = Homo sapiens, NCI-H460, read-out: Inhibitory efficacy, H460 cells, 2uM, given as fraction, Repeat 1-3
[5] = Homo sapiens, NCI-H460, read-out: Inhibitory efficacy, H460 cells, 8uM, given as fraction, Repeat 1-3
[6] = 4uM, given as fraction, Repeat 1-3
[7] = 16uM, given as fraction, Repeat 1-3
[8] = Homo sapiens, NCI-H1975, read-out: Inhibitory efficacy, H1975 cells, 4uM, given as fraction, Repeat 1-3
[9] = Homo sapiens, NCI-H1975, read-out: Inhibitory efficacy, H1975 cells, 8uM, given as fraction, Repeat 1-3
[10] = Homo sapiens, NCI-H1975, read-out: Inhibitory efficacy, H1975 cells, 16uM, given as fraction, Repeat 1-3
[11] = Homo sapiens, A549, read-out: Inhibitory efficacy, A549 cells, 16uM, given as fraction, Repeat 1-3
[12] = concentration 0.03 nM, one value per replicate column
[13] = concentration 0.03 nM, one value per replicate column, 3e-05 µM
[14] = concentration 0.3 nM, one value per replicate column
[15] = concentration 0.3 nM, one value per replicate column, 0.0003 µM
[16] = concentration 3 nM, one value per replicate column
[17] = concentration 3 nM, one value per replicate column, 0.003 µM
[18] = concentration 30 nM, one value per replicate column
[19] = concentration 30 nM, one value per replicate column, 0.03 µM
[20] = concentration 300 nM, one value per replicate column
[21] = concentration 300 nM, one value per replicate column, 0.3 µM
[22] = concentration 3000 nM, one value per replicate column
[23] = concentration 3000 nM, one value per replicate column, 3 µM
[24] = concentration 30000 nM, one value per replicate column
[25] = concentration 30000 nM, one value per replicate column, 30 µM

Chain of wild-type EGFR (P00533 25-1210): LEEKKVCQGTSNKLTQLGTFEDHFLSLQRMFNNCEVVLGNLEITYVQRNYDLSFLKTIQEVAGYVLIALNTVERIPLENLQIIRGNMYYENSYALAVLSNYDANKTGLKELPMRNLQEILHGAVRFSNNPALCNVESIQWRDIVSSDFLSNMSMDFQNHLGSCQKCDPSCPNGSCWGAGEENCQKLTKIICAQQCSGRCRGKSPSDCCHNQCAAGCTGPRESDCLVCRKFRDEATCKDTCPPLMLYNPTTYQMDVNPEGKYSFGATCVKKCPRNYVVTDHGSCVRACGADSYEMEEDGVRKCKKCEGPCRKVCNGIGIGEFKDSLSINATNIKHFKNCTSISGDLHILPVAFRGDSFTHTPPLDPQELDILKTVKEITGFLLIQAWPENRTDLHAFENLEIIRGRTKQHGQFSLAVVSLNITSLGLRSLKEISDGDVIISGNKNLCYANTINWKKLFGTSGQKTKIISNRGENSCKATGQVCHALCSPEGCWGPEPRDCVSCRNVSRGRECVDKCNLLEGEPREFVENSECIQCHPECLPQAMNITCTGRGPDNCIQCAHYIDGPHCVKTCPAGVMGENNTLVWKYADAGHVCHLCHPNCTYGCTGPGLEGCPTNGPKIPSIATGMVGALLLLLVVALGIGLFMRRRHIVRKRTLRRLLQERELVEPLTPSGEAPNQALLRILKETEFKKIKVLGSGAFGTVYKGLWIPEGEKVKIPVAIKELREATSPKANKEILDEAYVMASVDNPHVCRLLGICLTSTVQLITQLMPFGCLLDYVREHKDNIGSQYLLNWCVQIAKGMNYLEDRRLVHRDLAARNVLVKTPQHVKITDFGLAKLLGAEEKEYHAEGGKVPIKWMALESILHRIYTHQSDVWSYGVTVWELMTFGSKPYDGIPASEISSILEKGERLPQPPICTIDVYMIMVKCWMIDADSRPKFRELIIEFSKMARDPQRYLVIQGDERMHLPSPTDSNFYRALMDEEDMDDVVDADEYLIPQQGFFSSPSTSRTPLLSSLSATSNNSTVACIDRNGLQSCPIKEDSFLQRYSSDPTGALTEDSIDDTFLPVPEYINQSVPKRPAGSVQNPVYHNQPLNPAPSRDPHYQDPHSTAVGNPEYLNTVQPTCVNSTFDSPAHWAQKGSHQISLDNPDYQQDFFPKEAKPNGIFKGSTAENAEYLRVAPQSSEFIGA

SMILES: COCCOc1cc2ncnc(Nc3cccc(-c4cn(Cc5ccccc5Br)nn4)c3)c2cc1OCCOC [e3, [6,7-Bis-(2-methoxy-ethoxy)-quinazolin-4-yl]-{3-[1-(2-bromo-benzyl)-1H-[1,2,3]triazol-4-yl]-phenyl}-amine]
- IC50 (PC-9 cells): > 100 µM
- Inhibitory efficacy (H460 cells; [1]): 0.2775 and 0.3081
- Inhibitory efficacy (H460 cells; [2]): 0.3143 and 0.3387
- Inhibitory efficacy (H460 cells; [3]): 0.3004 and 0.3491
- IC50 (H460 cells; Homo sapiens): > 100 µM
- inhibition at 1 µM (H460 cells; Homo sapiens, NCI-H460, read-out: Inhibitory efficacy, H460 cells, 1uM, given as fraction, Repeat 1-3): 30.3%
- inhibition at 2 µM (H460 cells; [4]): 35%
- inhibition at 8 µM (H460 cells; [5]): 29%
- Inhibitory efficacy (H1975 cells; [6]): 0.09844 and 0.1507
- Inhibitory efficacy (H1975 cells; [3]): 0.1976 and 0.2347
- Inhibitory efficacy (H1975 cells; [7]): 0.494 and 0.5082
- IC50 (H1975 cells; Homo sapiens): 16.8 ± 1.02 µM
- inhibition at 4 µM (H1975 cells; [8]): 11.4%
- inhibition at 8 µM (H1975 cells; [9]): 25%
- inhibition at 16 µM (H1975 cells; [10]): 44.1%
- Inhibitory efficacy (A549 cells; [7]): 0.1506 and 0.2274
- IC50 (A549 cells; Homo sapiens): > 100 µM
- inhibition at 16 µM (A549 cells; [11]): 15.2%
- melting point: 94 to 97 °C
- IC50 (wild-type EGFR): 68 µM
- inhibition at 100 fM (wild-type EGFR; concentration 0.0001 nM (reference for normalisation), one value per replicate column): 0%
- inhibition at 30 pM (wild-type EGFR; [12]): 11.8%
- Inhibition (wild-type EGFR; [13]): 14.7465
- inhibition at 0.0003 µM (wild-type EGFR; [14]): 17.6%
- Inhibition (wild-type EGFR; [15]): 17.0507
- inhibition at 0.003 µM (wild-type EGFR; [16]): 19.3%
- Inhibition (wild-type EGFR; [17]): 17.0507
- inhibition at 0.03 µM (wild-type EGFR; [18]): 37.4%
- Inhibition (wild-type EGFR; [19]): 28.1106
- inhibition at 0.3 µM (wild-type EGFR; [20]): 42.2%
- Inhibition (wild-type EGFR; [21]): 35.4839
- inhibition at 3 µM (wild-type EGFR; [22]): 42.8%
- Inhibition (wild-type EGFR; [23]): 36.8664
- inhibition at 30 µM (wild-type EGFR; [24]): 44.9%
- Inhibition (wild-type EGFR; [25]): 39.1705
- A450 (wild-type EGFR; concentration 0.0001 nM): 0.398 and 0.464
- A450 (wild-type EGFR; concentration 0.03 nM): 0.376 and 0.432
- A450 (wild-type EGFR; concentration 0.3 nM): 0.365 and 0.427
- A450 (wild-type EGFR; concentration 3 nM): 0.362 and 0.427
- A450 (wild-type EGFR; concentration 30 nM): 0.328 and 0.403
- A450 (wild-type EGFR; concentration 300 nM): 0.319 and 0.387
- A450 (wild-type EGFR; concentration 3000 nM): 0.318 and 0.384
- A450 (wild-type EGFR; concentration 30000 nM): 0.314 and 0.379

SMILES: COCCOc1cc2ncnc(Nc3cccc(-c4cn(-c5ccc(OC)cc5OC)nn4)c3)c2cc1OCCOC [e17, [6,7-Bis-(2-methoxy-ethoxy)-quinazolin-4-yl]-{3-[1-(2,4-dimethoxy-phenyl)-1H-[1,2,3]triazol-4-yl]-phenyl}-amine]
- IC50 (PC-9 cells): > 100 µM
- Inhibitory efficacy (H460 cells; [2]): 0.3561 and 0.3949
- Inhibitory efficacy (H460 cells; [6]): 0.5495 and 0.6263
- Inhibitory efficacy (H460 cells; [3]): 0.7733 and 0.7776
- Inhibitory efficacy (H460 cells; [7]): 0.8649 and 0.8113
- IC50 (H460 cells; Homo sapiens): 3.18 ± 0.11 µM
- inhibition at 2 µM (H460 cells; [4]): 29.5%
- inhibition at 4 µM (H460 cells; Homo sapiens, NCI-H460, read-out: Inhibitory efficacy, H460 cells, 4uM, given as fraction, Repeat 1-3): 60.9%
- inhibition at 8 µM (H460 cells; [5]): 77.7%
- inhibition at 16 µM (H460 cells; Homo sapiens, NCI-H460, read-out: Inhibitory efficacy, H460 cells, 16uM, given as fraction, Repeat 1-3): 81.3%
- Inhibitory efficacy (H1975 cells; [1]): 0.195 and 0.1523
- Inhibitory efficacy (H1975 cells; [2]): 0.402 and 0.2557
- Inhibitory efficacy (H1975 cells; [6]): 0.3137 and 0.2571
- Inhibitory efficacy (H1975 cells; [3]): 0.5 and 0.471
- Inhibitory efficacy (H1975 cells; [7]): 0.4476 and 0.4006
- IC50 (H1975 cells; Homo sapiens): 18.3 ± 4.45 µM
- inhibition at 1 µM (H1975 cells; Homo sapiens, NCI-H1975, read-out: Inhibitory efficacy, H1975 cells, 1uM, given as fraction, Repeat 1-3): 23.1%
- inhibition at 2 µM (H1975 cells; Homo sapiens, NCI-H1975, read-out: Inhibitory efficacy, H1975 cells, 2uM, given as fraction, Repeat 1-3): 33.3%
- inhibition at 4 µM (H1975 cells; [8]): 29%
- inhibition at 8 µM (H1975 cells; [9]): 52.8%
- inhibition at 16 µM (H1975 cells; [10]): 47.1%
- Inhibitory efficacy (A549 cells; [1]): 0.282 and 0.1573
- Inhibitory efficacy (A549 cells; [2]): 0.4285 and 0.3755
- Inhibitory efficacy (A549 cells; [6]): 0.5452 and 0.5691
- Inhibitory efficacy (A549 cells; [3]): 0.5949 and 0.5372
- Inhibitory efficacy (A549 cells; [7]): 0.5916 and 0.6049
- IC50 (A549 cells; Homo sapiens): 4.86 ± 0.6 µM
- inhibition at 1 µM (A549 cells; Homo sapiens, A549, read-out: Inhibitory efficacy, A549 cells, 1uM, given as fraction, Repeat 1-3): 15.3%
- inhibition at 2 µM (A549 cells; Homo sapiens, A549, read-out: Inhibitory efficacy, A549 cells, 2uM, given as fraction, Repeat 1-3): 40.1%
- inhibition at 4 µM (A549 cells; Homo sapiens, A549, read-out: Inhibitory efficacy, A549 cells, 4uM, given as fraction, Repeat 1-3): 55.6%
- inhibition at 8 µM (A549 cells; Homo sapiens, A549, read-out: Inhibitory efficacy, A549 cells, 8uM, given as fraction, Repeat 1-3): 58.9%
- inhibition at 16 µM (A549 cells; [11]): 65%
- melting point: 85 to 88 °C
- IC50 (wild-type EGFR): 15.5 µM
- inhibition at 30 pM (wild-type EGFR; [12]): 13.7%
- Inhibition (wild-type EGFR; [13]): 9.36
- inhibition at 0.0003 µM (wild-type EGFR; [14]): 14.2%
- Inhibition (wild-type EGFR; [15]): 12.4795
- inhibition at 0.003 µM (wild-type EGFR; [16]): 14.4%
- Inhibition (wild-type EGFR; [17]): 19.0476
- inhibition at 0.03 µM (wild-type EGFR; [18]): 18.2%
- Inhibition (wild-type EGFR; [19]): 26.7652
- inhibition at 0.3 µM (wild-type EGFR; [20]): 32.9%
- Inhibition (wild-type EGFR; [21]): 32.1839
- inhibition at 3 µM (wild-type EGFR; [22]): 34.7%
- Inhibition (wild-type EGFR; [23]): 34.8112
- inhibition at 30 µM (wild-type EGFR; [24]): 60.1%
- Inhibition (wild-type EGFR; [25]): 58.1281
- A450 (wild-type EGFR; concentration 0.0001 nM): 0.831 and 0.824
- A450 (wild-type EGFR; concentration 0.03 nM): 0.745 and 0.767
- A450 (wild-type EGFR; concentration 0.3 nM): 0.742 and 0.748
- A450 (wild-type EGFR; concentration 3 nM): 0.741 and 0.708
- A450 (wild-type EGFR; concentration 30 nM): 0.717 and 0.661
- A450 (wild-type EGFR; concentration 300 nM): 0.625 and 0.628
- A450 (wild-type EGFR; concentration 3000 nM): 0.614 and 0.612
- A450 (wild-type EGFR; concentration 30000 nM): 0.455 and 0.47

From article PMC8776995 (Frontiers in Chemistry, 2022)
